We go through four compounds from patent publication US20260115203A1 (LABORATORIOS LITAPHAR, S.L., priority 2023, published 2026).

For data set [1], the target named is T1, human progesterone receptor (Homo sapiens, UniProt P06401).
T1 sequence (P06401 1-933): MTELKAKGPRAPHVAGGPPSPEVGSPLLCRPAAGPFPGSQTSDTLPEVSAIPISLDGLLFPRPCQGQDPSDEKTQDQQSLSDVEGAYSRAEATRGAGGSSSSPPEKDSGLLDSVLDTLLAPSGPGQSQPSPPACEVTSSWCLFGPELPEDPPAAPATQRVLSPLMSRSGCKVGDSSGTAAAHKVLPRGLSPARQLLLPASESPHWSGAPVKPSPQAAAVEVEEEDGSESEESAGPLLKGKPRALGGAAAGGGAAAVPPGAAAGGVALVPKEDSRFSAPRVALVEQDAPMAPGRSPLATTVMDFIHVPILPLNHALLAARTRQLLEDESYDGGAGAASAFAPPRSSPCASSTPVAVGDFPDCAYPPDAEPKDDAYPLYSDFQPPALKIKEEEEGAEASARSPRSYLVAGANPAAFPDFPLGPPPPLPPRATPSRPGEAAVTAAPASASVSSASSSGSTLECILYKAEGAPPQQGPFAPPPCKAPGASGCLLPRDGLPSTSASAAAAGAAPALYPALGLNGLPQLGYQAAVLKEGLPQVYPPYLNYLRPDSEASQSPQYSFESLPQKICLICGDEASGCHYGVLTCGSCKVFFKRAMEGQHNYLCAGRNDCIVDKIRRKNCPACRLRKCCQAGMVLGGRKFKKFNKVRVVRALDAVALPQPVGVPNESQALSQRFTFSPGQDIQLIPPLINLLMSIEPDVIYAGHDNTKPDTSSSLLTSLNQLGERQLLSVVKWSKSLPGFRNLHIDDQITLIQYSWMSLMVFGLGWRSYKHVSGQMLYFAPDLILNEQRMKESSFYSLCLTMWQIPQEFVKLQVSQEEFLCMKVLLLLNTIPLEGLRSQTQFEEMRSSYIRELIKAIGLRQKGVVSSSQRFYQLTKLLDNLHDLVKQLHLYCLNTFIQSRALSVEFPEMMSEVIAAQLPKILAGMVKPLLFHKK
The following applies: cited from earlier work.

The target of data set [2] is T2, human glucocorticoid receptor (Homo sapiens, UniProt P04150).
T2 sequence (P04150 1-777): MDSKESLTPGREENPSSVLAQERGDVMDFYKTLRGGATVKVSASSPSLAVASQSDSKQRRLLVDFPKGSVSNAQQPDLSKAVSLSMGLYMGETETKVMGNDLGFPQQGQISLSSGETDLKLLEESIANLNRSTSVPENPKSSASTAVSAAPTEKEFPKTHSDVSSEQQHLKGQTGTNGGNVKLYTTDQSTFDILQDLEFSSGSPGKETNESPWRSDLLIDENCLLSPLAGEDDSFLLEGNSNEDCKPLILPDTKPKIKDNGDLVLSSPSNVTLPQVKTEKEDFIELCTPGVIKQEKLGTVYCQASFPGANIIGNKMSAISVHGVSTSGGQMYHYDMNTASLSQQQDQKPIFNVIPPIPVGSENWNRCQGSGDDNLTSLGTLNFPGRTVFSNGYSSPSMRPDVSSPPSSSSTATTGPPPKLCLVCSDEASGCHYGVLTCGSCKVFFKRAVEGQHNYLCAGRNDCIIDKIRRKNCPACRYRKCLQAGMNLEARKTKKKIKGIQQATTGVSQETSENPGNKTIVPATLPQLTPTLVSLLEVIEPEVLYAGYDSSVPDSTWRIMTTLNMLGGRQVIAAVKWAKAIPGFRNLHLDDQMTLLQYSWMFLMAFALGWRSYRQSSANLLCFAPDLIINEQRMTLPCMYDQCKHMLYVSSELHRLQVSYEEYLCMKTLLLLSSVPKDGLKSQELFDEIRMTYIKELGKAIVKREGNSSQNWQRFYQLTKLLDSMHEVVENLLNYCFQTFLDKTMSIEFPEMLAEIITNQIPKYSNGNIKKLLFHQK
The following applies: cited from earlier work.

For data set [3] the following is noted: compared with parent drug mifepristone; cited from earlier work.
Data set [4] deals with endometriosis in reproductive-age women. Description: Randomized, double-blind clinical trial of mifepristone 2.5 mg and 5 mg vs. placebo (EudraCT 2018-002367-26), endometriosis associated pain by VAS. The class given is in vivo. The text has this:
Both mifepristone products were formulated as tablets with the following respective compositions: […]
The planned number of subjects to be included in the whole clinical trial was 490.
The principal inclusion criteria were: • [1] Premenopausal female, between 18 and 45 years of age inclusive, at the time of signing consent • [2] Patients with Endometriosis Associated Pelvic Pain (EAPP: i.e. any type of pelvic pain associated with endometriosis: nonmenstrual pelvic pain, dysmenorrhea, dyschezia and dyspareunia) as measured by Visual Analogue Scale (VAS)≥40 mm at least once in the previous 4 weeks from baseline visit • [3] Patients with a history of EAPP for at least the past 6 months prior to the initial screening visit • [4] Endometriosis diagnosed by laparoscopy and/or surgery in the past 10 years or less or diagnosed by MRI or transvaginal ultrasound in the past 5 years • [5] Patients with a history of regular menstrual cycles (21-35 days) while not being on any pharmacological treatment that could alter the menstrual cycle (e.g. oral contraceptive pills) • [6] Patients who agree to use only ibuprofen 400 mg as rescue medication up to a total daily dose of not more than 2400 mg • [7] Patients willing and able (e.g. mental and physical condition) to participate in all aspects of the study as evidenced by providing signed written informed consent • [8] Patient agrees to use double barrier contraception birth control methods (e.g. condom with spermicide) during the entire length of participation in the study. […] History of hypersensitivity or intolerance to the active substance or any of the excipients of the study medication • [2] Subject is pregnant or breast-feeding or is planning a pregnancy within the duration of the study or is less than 6 months postpartum, post-abortion, or post-lactation at the time of entry into the screening period • [3] Previous use of hormonal agents before the Screening visit: ≤24 weeks for GnRH agonists; ≤12 weeks for depot progestogens and danazol: ≤6 weeks for oral contraceptives • [4] Patients with history of any cancer (including breast cancer) and/or histological diagnosis of endometrial atypical hyperplasia at baseline (note: the combination of endometrial thickness<5 mm determined by transvaginal ultrasound and insufficient material for histological evaluation from the endometrial biopsy will be regarded as atrophic endometrium) • [5] Other clinically significant gynaecological condition causing abnormal uterine bleeding already known or identified on Screening such as severe adenomyosis or symptomatic uterine fibroids requiring treatment • [6] Subject has current or history of abnormal genital bleeding • [7] Presence of ovarian cyst of unknown etiology • [8] Cervical smear with pathological findings: class III or higher according to Papanicolaou, class IIp or higher according to the Munich Ill nomenclature or ASC-US or higher according to the Bethesda system • [9] Surgical treatment of endometriosis within 3 months prior to the screening visit • [10] Presence of chronic pain other than pain due to endometriosis • [11] Hepatic insufficiency • [12] History of, or complications of, thrombosis, embolism, or serious cardiac, respiratory (severe asthma not adequately controlled by treatment), renal, hematologic, endocrine diseases • [13] Uncontrolled or inadequately controlled hypertension at the time of screening with a resting supine systolic or diastolic blood pressure>180 mmHg or >95 mmHg, respectively • [14] Subject with hereditary porphyria • [15] Abnormal laboratory findings considered by the investigator as clinically significant • [16] Positive results for HBs-Ag, anti-HCV and HIV-1/HIV-2-antibodies • [17] […]

For data set [5], the system named is women with endometriosis. The following applies: 100 mg orally daily, three months, cited from earlier work.
In data set [6] the test system is women with endometriosis. The following applies: 50 mg orally daily, 6 months, cited from earlier work.
Data set [7] relates to women with endometriosis. The following applies: 5 mg orally daily, 6 months, cited from earlier work.
In data set [8] the test system is women with laparoscopic diagnostic of endometriosis. The following applies: cited from earlier work.

Entries after “also recorded” stand apart in the source; their conditions may differ. Read-outs that look alike come from different tables or passages of the source.

With `CN(C)c1ccc([C@H]2C[C@@]3(C)[C@@H](CC[C@]3(O)C#CCO)[C@@H]3CCC4=CC(=O)CCC4=C32)cc1` [RU 42698], the “affinity toward the human progesterone receptor” value in data set [1] was “considerable affinity”. Further, the “affinity toward the human glucocorticoid receptor” value in data set [2] is listed as “considerable affinity”. The serum concentrations result in data set [3] was “in a similar range as those of the parent drug”.

For the compound `CC#C[C@]1(O)CC[C@H]2[C@@H]3CCC4=CC(=O)CCC4=C3[C@@H](c3ccc(N(C)C)cc3)C[C@@]21C` [mifepristone], the “pain relief, 2.5 mg daily dose compared with 5 mg daily dose” value in data set [4] (2.5 mg (T1) vs 5 mg (T2) per day) is “more pronounced than the 5 mg group; also recorded: more effective than the 5 mg dose; also recorded: less pelvic pain than with a daily dose of 5 mg”. For the same compound, in data set [4] (2.5 mg tablet every day as monotherapy, lesions in cesarean sections or ovarian endometriomas), the “pain associated with extra-pelvic endometriosis” value is “effective to reduce the pain associated with extra-pelvic endometriosis; also recorded: appropriate pain relief”. Further, the endometrial thickening result in data set [4] (5 mg dose compared with 2.5 mg dose) is recorded as “markedly greater endometrial thickening than the lower dose of 2.5 mg”. Further, the “EAP (VAS)” value in data set [4] (T1, 2.5 mg mifepristone per day, 1 month of treatment) stood at 29.19; in data set [4] (T1, 2.5 mg mifepristone per day, 2 months of treatment), 24.61; in data set [4] (T1, 2.5 mg mifepristone per day, 3 months of treatment) it was 23.63; in data set [4] (T1, 2.5 mg mifepristone per day, 4 months of treatment), 22.31; in data set [4] (T1, 2.5 mg mifepristone per day, month 0 (before treatment)), 32.81; in data set [4] (T2, 5 mg mifepristone per day, 1 month of treatment) it was 29.30. Also, the “EAP (VAS)” value in data set [4] (T2, 5 mg mifepristone per day, 2 months of treatment) was 26.11; in data set [4] (T2, 5 mg mifepristone per day, 3 months of treatment), 24.58; in data set [4] (T2, 5 mg mifepristone per day, 4 months of treatment) it was 25.01; in data set [4] (T2, 5 mg mifepristone per day, month 0 (before treatment)), 32.81. Also, the “intensity of pain associated with endometriosis” value in data set [4] (daily dose of 2.5 mg alone, no analgesic rescue medication) is given as “significant reduction”. The amenorrhea entry in the data set with women with endometriosis [5] (six women) was “reported by all study participants”. In addition, the pelvic pain entry in the data set on women with endometriosis [5] (six women) is “all women also reported improvement”; in the data set with women with endometriosis [7] (seven women), “improved in six of seven patients”. Further, the “extent of endometriosis (follow-up laparoscopy)” value in the data set on women with endometriosis [5] is “no significant change”. Besides, the amenorrhea / hypoestrogenism result in the data set on women with endometriosis [6] (all patients) is “amenorrhea without hypoestrogenism”. The “pelvic pain and uterine cramping” value in the data set with women with endometriosis [6] (nine women) is listed as “improved in all patients”. For the same compound, the “regression of endometriosis (laparoscopic assessment, AFS score)” value in the data set with women with endometriosis [6] is listed as 55%. Moreover, the cyclic bleeding entry in the data set on women with endometriosis [7] (seven women) is on record as “ceased in all patients”. The “decrease of mean endometriosis scores” value in the data set on women with endometriosis [7] is “decreased by only %”. In addition, the “amenorrhea and clinical improvement, 2.5 mg group vs 5 and 10 mg groups” value in data set [8] (2.5 mg oral dose) was “significantly lower percentages of amenorrhea and clinical improvement than the 5 and 10 mg groups”. Also, the “use of analgesics (rescue therapy), 2.5 mg group vs 5 and 10 mg groups” value in data set [8] (2.5 mg oral dose) is reported as “significantly greater use of analgesics”. For the same compound, in data set [8] (2.5, 5 and 10 mg oral doses, all treatment groups), the effectiveness against placebo result was “more effective than the placebo group”. The “clinical improvement, 5 mg vs 10 mg” value in data set [8] (after 90 and 180 days of treatment) is given as “no differences were observed”.

For the compound `CC#C[C@]1(O)CC[C@H]2[C@@H]3CCC4=CC(=O)CCC4=C3[C@@H](c3ccc(NC)cc3)C[C@@]21C` [RU 42633], the “affinity toward the human progesterone receptor” value in data set [1] is “considerable affinity”. Further, the “affinity toward the human glucocorticoid receptor” value in data set [2] is listed as “considerable affinity”. For the same compound, in data set [3], the serum concentrations entry is “in a similar range as those of the parent drug”.

Regarding `CC#C[C@]1(O)CC[C@H]2[C@@H]3CCC4=CC(=O)CCC4=C3[C@@H](c3ccc(N)cc3)C[C@@]21C` [RU 42848], the “affinity toward the human progesterone receptor” value in data set [1] is given as “considerable affinity”. The “affinity toward the human glucocorticoid receptor” value in data set [2] is reported as “considerable affinity”. For the same compound, the serum concentrations entry in data set [3] is recorded as “in a similar range as those of the parent drug”.
